Patent publication US20050148631A1, “Amino heterocyclyl inhibitors of 11-beta-hydroxy steroid dehydrogenase type 1” (AGOURON PHARMACEUTICALS, INC., priority 2003, published 2005)
Where two headings read alike, the source gives them in different places.

Key:
11β-hsd-1 enzyme [1] = molecular target: T1, 11β-hsd-1 enzyme (Homo sapiens, UniProt P28845); experiment: 11β-hsd-1 enzyme assay, Kiapp determination (3H-cortisone to cortisol, radio-HPLC); assay type: biochemical; settings: read-out: Ki app
T1 sequence (P28845 whole entry, species assumed): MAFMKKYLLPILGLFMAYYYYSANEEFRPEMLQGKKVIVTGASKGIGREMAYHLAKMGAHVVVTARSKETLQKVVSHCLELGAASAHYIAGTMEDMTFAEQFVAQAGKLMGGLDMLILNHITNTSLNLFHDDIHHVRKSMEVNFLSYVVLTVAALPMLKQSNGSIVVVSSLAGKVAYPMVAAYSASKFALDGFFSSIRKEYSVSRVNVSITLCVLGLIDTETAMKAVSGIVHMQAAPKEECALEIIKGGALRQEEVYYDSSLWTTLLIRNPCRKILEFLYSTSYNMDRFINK

11β-hsd-1 enzyme [2] = molecular target: T1, 11β-hsd-1 enzyme; experiment: 11β-hsd-1 enzyme assay, percentage of inhibition (3H-cortisone to cortisol, radio-HPLC); assay type: biochemical; settings: for inhibition at 0.1 µM: read-out: % inh @ 0.1 uM

SMILES	Ki (11β-hsd-1 enzyme [1]; apparent Ki, 11β-hsd-1 enzyme)	inhibition at 0.1 µM (11β-hsd-1 enzyme [2]; compound at 0.1 uM)	Ki (11β-hsd-1 enzyme [1])	inhibition at 0.1 µM (11β-hsd-1 enzyme [2]; 0.1 uM)	also measured
Cc1cccc(NS(=O)(=O)N2CCC(c3ccc(F)cc3)CC2)n1 [Example 301]	4.9 nM	100%	–	–	–
N#Cc1ccc(C2CCN(S(=O)(=O)Nc3ccc4ccccc4n3)CC2)cc1 [Example 308]	< 1 nM	95.7%	–	–	–
Cc1cccc(NS(=O)(=O)c2ccc(-c3ccc(C(F)(F)F)cn3)cc2)n1 [Example 271]	20 nM	87.7%	–	–	–
Nc1cccc(NS(=O)(=O)c2ccc(-c3ccc(F)cc3)cc2)n1 [Example 43]	–	–	8.1 nM	98%	–
CCS(=O)(=O)c1ccc(-c2ccc(S(=O)(=O)Nc3cccc(C)n3)c(C)c2)cc1 [Example 203]	19 nM	86%	–	–	–
Cc1cccc(NS(=O)(=O)c2ccc(-c3ccc(CO)cc3)cc2C)n1 [Example 180]	–	–	75 nM	65%	–
Cc1cccc(NS(=O)(=O)c2ccc(-c3ccc4c(c3)CCO4)cc2C)n1 [Example 211]	23 nM	81%	–	–	–
N#Cc1ccc(-c2ccc(S(=O)(=O)Nc3ccc4ccccc4n3)cn2)cc1 [Example 290, 6-(4-Cyano-phenyl)-pyridine-3-sulfonic acid quinolin-2-ylamide]	12 nM	100%	–	–	–
CCOC(=O)Cc1cccc(NS(=O)(=O)c2ccc(-c3ccc(C#N)cc3)cc2)n1 [Example 2]	–	–	16 nM	85.4%	–
Cc1cccc(NS(=O)(=O)c2ccc(-c3cccc(F)c3)c(C)c2)n1 [Example 224]	19 nM	93%	–	–	–
Cc1cccc(NS(=O)(=O)c2cccc(Cl)c2C)n1 [Example 38]	–	–	169 nM	–	% inh @ 0.1 uM (11β-hsd-1 enzyme [2]; 0.1 uM): 49%
Cc1cccc(NS(=O)(=O)c2ccc(-c3cccc(Cl)c3)c(C)c2)n1 [Example 213]	31 nM	77%	–	–	–
Cc1cccc(NS(=O)(=O)c2ccc3c(Cl)cccc3c2)n1 [Example 102]	–	–	< 1 nM	100%	–
Cc1cccc(NS(=O)(=O)c2ccc(-c3ccccc3O)cc2C)n1 [Example 181]	–	–	53 nM	83%	–
Cc1cccc(NS(=O)(=O)c2ccc(-c3ccc(Cl)cc3Cl)c(C)c2)n1 [Example 221]	18 nM	87%	–	–	–
Cc1c(Cl)cccc1S(=O)(=O)Nc1cccc(N)n1 [Example 41]	–	–	17 nM	94%	–
Cc1cccc(NS(=O)(=O)c2ccc(-c3ccc(F)c(C)c3)cc2C)n1 [Example 183]	–	–	14 nM	91%	–
Cc1cccc(NS(=O)(=O)c2ccc(-c3ccccc3Cl)c(C)c2)n1 [Example 212]	47 nM	75%	–	–	–
Nc1cccc(NS(=O)(=O)c2ccc(-c3ccccc3)cc2)n1 [Example 40]	–	–	4.3 nM	98%	–
Cc1cccc(NS(=O)(=O)c2ccc(-c3cc(Cl)cc(Cl)c3)cc2C)n1 [Example 174]	–	–	3.2 nM	98%	–
Cc1cccc(NS(=O)(=O)c2ccc(-c3cc(Cl)cc(Cl)c3)c(C)c2)n1 [Example 222]	10 nM	90%	–	–	–
CCOc1ccc(-c2ccc(S(=O)(=O)Nc3cccc(C)n3)c(C)c2)cc1 [Example 192]	–	–	15 nM	81%	–
Cc1cccc(NS(=O)(=O)c2ccc(-c3ccc(C#N)cc3)c(C)c2)n1 [Example 281]	10 nM	92.9%	–	–	–

SMILES	Ki (11β-hsd-1 enzyme [1]; apparent Ki, 11β-hsd-1 enzyme)	inhibition at 0.1 µM (11β-hsd-1 enzyme [2]; compound at 0.1 uM)	Ki (11β-hsd-1 enzyme [1])	inhibition at 0.1 µM (11β-hsd-1 enzyme [2]; 0.1 uM)	also measured
Cc1cccc(NS(=O)(=O)c2ccc(-c3ccc(CO)cc3)c(C)c2)n1 [Example 223]	320 nM	79%	–	–	–
COc1ccc(-c2ccc(S(=O)(=O)Nc3cccc(C)n3)c(C)c2)cc1 [Example 169]	–	–	19 nM	93%	–
O=S(=O)(Nc1ccc2ccccc2n1)c1ccc(-c2ccc(F)cc2)cc1 [Example 48]	–	–	14.5 nM	90%	–
Cc1cccc(NS(=O)(=O)N2CCc3ccccc3C2)n1 [Example 300]	11 nM	88.3%	–	–	–
N#Cc1ccc(-c2ccc(S(=O)(=O)Nc3ccc4ccccc4n3)cc2)cc1 [Example 87]	–	–	3.6 nM	100%	–
CCc1ccccc1-c1ccc(S(=O)(=O)Nc2cccc(C)n2)c(C)c1 [Example 201]	43 nM	75%	–	–	–
CCc1cccc(NS(=O)(=O)c2sc(-c3ccc(C#N)cc3)nc2C)n1 [Example 119]	–	–	3.1 nM	95%	–
Cc1cccc(NS(=O)(=O)c2ccc(-c3ccc(CC(C)C)cc3)cc2C)n1 [Example 210]	47 nM	74%	–	–	–
Cc1cccc(NS(=O)(=O)c2ccc(-c3cccc(O)c3)cc2C)n1 [Example 185]	–	–	46 nM	71%	–
Cc1cccc(NS(=O)(=O)c2ccc3ccc(Cl)cc3c2)n1 [Example 93]	–	–	42.3 nM	70%	–
Cc1cccc(NS(=O)(=O)c2ccc(-c3ccc(C#N)c(C)c3)cc2)n1 [Example 273]	5.3 nM	95.5%	–	–	–
Cc1cccc(NS(=O)(=O)c2ccc(-c3ccc(C#N)cc3C(F)(F)F)cc2)n1 [Example 272]	12 nM	100%	–	–	–
Cc1ccc(-c2ccc(S(=O)(=O)Nc3cccc(C)n3)c(C)c2)cc1 [Example 171]	–	–	6.9 nM	93%	–
Cc1c(S(=O)(=O)Nc2cccc(N)n2)sc2ccc(Cl)cc12 [Example 107]	–	–	< 1 nM	100%	–
Cc1cccc(NS(=O)(=O)c2ccc(-c3ccc(Cl)c(Cl)c3)cc2C)n1 [Example 176]	–	–	5.2 nM	100%	–
Cc1cccc(NS(=O)(=O)c2ccc(-c3ccc(C#N)cc3)c(F)c2)n1 [Example 284, 4′-Cyano-2-fluoro-biphenyl-4-sulfonic acid (6-methyl-pyridin-2-yl)-amide]	3.4 nM	100%	–	–	–
CCOc1ccccc1-c1ccc(S(=O)(=O)Nc2cccc(C)n2)cc1C [Example 232]	660 nM	78%	–	–	–
O=S(=O)(Nc1ccc2ccccc2n1)c1ccc(-c2ccc(F)cc2)nc1 [Example 291]	27 nM	92.5%	–	–	–
O=S(=O)(Nc1ccc2ccccc2n1)N1CCC(c2ccccn2)CC1 [Example 316]	67 nM	67.4%	–	–	–
Cc1cccc(NS(=O)(=O)c2ccc(-c3cccc(Cl)c3)cc2C)n1 [Example 163]	–	–	8 nM	97%	–
Cc1cccc(NS(=O)(=O)c2ccc3ccccc3c2)n1 [Example 37]	–	–	84 nM	45%	–
Cc1cccc(NS(=O)(=O)c2ccc(-c3cccc(F)c3F)c(C)c2)n1 [Example 238]	27 nM	82%	–	–	–
Cc1cccc(NS(=O)(=O)c2sc3ccc(C#N)cc3c2C)n1 [Example 295, 5-Cyano-3-methyl-benzo[b]thiophene-2-sulfonic acid (6-methyl-pyridin-2-yl)-amide]	2.3 nM	100%	–	–	–

SMILES	Ki (11β-hsd-1 enzyme [1]; apparent Ki, 11β-hsd-1 enzyme)	inhibition at 0.1 µM (11β-hsd-1 enzyme [2]; compound at 0.1 uM)	Ki (11β-hsd-1 enzyme [1])	inhibition at 0.1 µM (11β-hsd-1 enzyme [2]; 0.1 uM)	also measured
N#Cc1ccc(C2CCN(S(=O)(=O)Nc3cccc(N)n3)CC2)cc1 [Example 317, 4-(4-Cyano-phenyl)-piperidine-1-sulfonic acid (6-amino-pyridin-2-yl)-amide]	< 1 nM	100%	–	–	–
COc1cccc(-c2ccc(S(=O)(=O)Nc3cccc(C)n3)c(C)c2)c1 [Example 162]	–	–	21 nM	89%	–
CCOc1cccc(-c2ccc(S(=O)(=O)Nc3cccc(C)n3)c(C)c2)c1 [Example 165]	–	–	43 nM	71%	–
CCN(CC)C(=O)Cc1cccc(NS(=O)(=O)c2ccc(F)cc2)n1 [Example 24]	–	–	–	3.7%	–
CC(=O)c1cccc(-c2ccc(S(=O)(=O)Nc3cccc(C)n3)cc2)c1 [Example 148]	–	–	–	57.2%	–
COc1ccc(C(C)C)cc1-c1ccc(S(=O)(=O)Nc2cccc(C)n2)cc1C [Example 239]	–	65%	–	–	–
Cc1cccc(-c2ccc(S(=O)(=O)Nc3cccc(C)n3)cc2C)c1 [Example 227]	–	40%	–	–	–
CCN(CC)C(=O)Cc1cccc(NS(=O)(=O)c2cccc(Cl)c2C)n1 [Example 20]	–	–	220 nM	–	–
Cc1cccc(NS(=O)(=O)c2ccc(-c3c(C)cccc3C)c(C)c2)n1 [Example 241]	–	64%	–	–	–
Cc1cccc(NS(=O)(=O)c2ccc(-c3ccc(S(C)(=O)=O)cc3)cc2)n1 [Example 158]	–	–	–	71%	–
CCCCc1ccc(-c2ccc(S(=O)(=O)Nc3cccc(C)n3)cc2C)cc1 [Example 246]	–	65%	–	–	–
CCN(CC)C(=O)Cc1cccc(NS(=O)(=O)c2ccc(C(F)(F)F)cc2)n1 [Example 21]	–	–	480 nM	–	–
Cc1cccc(NS(=O)(=O)c2ccc(-c3cccc(C#N)c3)cc2)n1 [Example 132]	–	–	–	61.7%	–
Cc1cccc(NS(=O)(=O)c2ccc(-c3cccc(C(F)(F)F)c3)cc2)n1 [Example 130]	–	–	–	78.9%	–
CCOc1ccc(-c2ccc(S(=O)(=O)Nc3cccc(C)n3)cc2C)cc1 [Example 229]	–	9%	–	–	–
COc1ccc(-c2ccc(S(=O)(=O)Nc3cccc(C)n3)cc2)c(C)c1 [Example 255]	–	64.6%	–	–	–
Cc1cccc(NS(=O)(=O)c2ccc(-c3ccccc3C)c(C)c2)n1 [Example 218]	–	56%	–	–	–
Cc1cccc(NS(=O)(=O)N2Cc3ccccc3C2)n1 [Example 298]	–	13.3%	–	–	–
Cc1cccc(N(CCN(C)C)S(=O)(=O)c2ccc(-c3ccc(C#N)cc3)cc2)n1 [Example 265, 4′-Cyano-biphenyl-4-sulfonic acid (2-dimethylamino-ethyl)-(6-methyl-pyridin-2-yl)-amide]	–	11.4%	–	–	–
COc1cc(-c2ccc(C#N)cc2)ccc1S(=O)(=O)Nc1cccc(C)n1 [Example 276, 4′-Cyano-3-methoxy-biphenyl-4-sulfonic acid (6-methyl-pyridin-2-yl)-amide]	–	60.1%	–	–	–
Cc1cccc(NS(=O)(=O)N2CCC(c3ccccc3)(c3ccccc3)CC2)n1 [Example 307]	–	29.5%	–	–	–
Cc1c(Cl)cccc1S(=O)(=O)Nc1cccc(CC(=O)N2CCCCC2)n1 [Example 9]	–	–	–	54.8%	–
